{"source": "patent US20110172297A1", "about": "“Oxopiperdinyl And Pyranyl Sulfonamides and Pharmaceutical Compositions Thereof” (Pfizer Inc, priority 2008, published 2011)"}
{"test_system": "AMPA receptors", "assay": "AMPA ES cell FLIPR screen (AMPA Potentiator Assay)", "assay_type": "cell-based", "conditions": "murine ES cell-derived neurons, FLIPR Fluo-4 calcium signal, 32 uM AMPA challenge; values marked * are the geometric mean of 2-9 EC50 determinations", "method": "The murine ES cell line used was E14-Sx1-16C, which has a targeted mutation in the Sox1 gene, a neuroectodermal marker, that offers G418 resistance when the Sox1 gene is expressed (Stem Cell Sciences). ES cells were maintained undifferentiated as previously described (Roach). […] ES cells were plated on gelatin-coated dishes (BD Biosciences), the media was changed daily and the cells were dissociated with 0.05% Trypsin EDTA (Invitrogen) every other day.\nEmbryoid Body Formation: Prior to embryoid body (EB) formation the ES cells were weaned from FBS onto Knockout Serum Replacement (KSR) (Invitrogen). To form EBs, ES cells were dissociated into a single cell suspension, then 3×10^6 cells were plated in bacteriology dishes (Nunc 4014) and grown as a suspension culture in NeuroEB-I medium that consisted of Knockout™ D-MEM (Invitrogen), supplemented with 10% KSR (Invitrogen), 0.2 mM L-Glutamine (Invitrogen), 0.1 mM MEM non-essential amino acids (Invitrogen), 30 μg/ml Gentamicin (Invitrogen), 1000 u/ml ESGRO (Chemicon), 0.1 mM 2-Mercaptoethanl (Sigma) and 150 ng/ml Transferrin (Invitrogen). The plates were put on a Stovall Belly Button shaker in an atmospheric oxygen incubator. The media was changed on day 2 of EB formation with NeuroEB-I and on day 4 with NeuroEB-II (NeuroEB-I plus 1 μg/ml mNoggin [R&D Systems]).\nNeuronal Precursor Selection and Expansion: On day 5 of EB formation, EBs were dissociated with 0.05% Trypsin EDTA, and 4×10^6cells/100 mm dish were plated on Laminin coated tissue culture dishes in Neuroll-G418 medium that consisted of a base medium of a 1:1 mixture of D-MEM/F12 supplemented with N2 supplements and NeuroBasal Medium supplemented with B27 supplement and 0.1 mM L-Glutamine (all from Invitrogen). The base medium was then supplemented with 10 ng/ml bFGF (Invitrogen), 1 μg/ml mNoggin, 500 ng/ml SHH—N, 100 ng/ml FGF-8b (R&D Systems), 1 μg/ml Laminin and 200 μg/ml G418 (Invitrogen) for selection of neuronal precursors expressing Sox-1. The plates were put in an incubator that contained 2% Oxygen and were maintained in these conditions. During the 6-day selection period, the Neuroll media was changed daily. On day 6, the surviving neuronal precursor foci were dissociated with 0.05% Trypsin EDTA and the cells were plated at a density of 1.5×10^6 cells/100 mm Laminin coated dish in Neuroll-G418 medium. The cells were dissociated every other day for expansion, and prepared for Cryopreservation at passage 3 or 4. The crypreservation medium contained 50% KSR, 10% Dimethyl Sulfoxide (DMSO) (Sigma) and 40% Neurol-G418I medium. Neuronal precursors were crypreserved at a concentration of 4×10^6 cells/ml and 1 ml/cryovial in a controlled rate freezer overnight then transferred to an ultra-low freezer or liquid nitrogen for long-term storage.\nNeuronal Differentiation: Cryopreserved ES cell-derived neuronal precursors were thawed by the rapid thaw method in a 37-degree water-bath. The cells were transferred from the cryovial to a 100 mm Laminin coated tissue culture dish that already contained Neuroll-G418 that had been equilibrated in a 2% Oxygen incubator. The media was changed with fresh Neuroll-G418 the next day. The cells were dissociated every other day as described above for expansion to generate enough cells to plate for the screen. For the screen, the cells were plated into 384-well poly-d-lysine coated tissue culture dishes (BD Biosciences) by the automated SelecT at a cell density of 6K cells/well in differentiation medium Neurolll that contained a 4:1 ratio of the NeuroBasalMedium/B27:D-MEM/F12/N2 supplemented with 1 μM cAMP (Sigma), 200 μM Ascorbic Acid (Sigma), 1 μg/ml Laminin (Invitrogen) and 10 ng/ml BDNF (R&D Systems). The plates were put in an incubator with 2% Oxygen and allowed to complete the differentiation process for 7 days. The cells could then be used over a 5-day period for the high throughput screen.\nOn the day of the assay, the FLIPR assay may be performed using the following methods: […]", "units": {"EC50": "µM"}}
{"compound": "CC(C)S(=O)(=O)N[C@H]1CCOC[C@H]1c1ccc(-c2ccc(C#N)s2)cc1", "note": "[Example 1, N-{(3S,4S)-3-[4-(5-cyano-2-thienyl)phenyl]tetrahydro-2H-pyran-4-yl}propane-2-sulfonamide]", "EC50": 11}
{"compound": "CC(C)S(=O)(=O)N[C@H]1CCOC[C@@H]1c1ccc(-c2ccccc2)cc1", "note": "[Example 2, N-[(3R,4S)-3-biphenyl-4-yltetrahydro-2H-pyran-4-yl]propane-2-sulfonamide]", "EC50": 0.365}
{"compound": "CC(C)S(=O)(=O)N[C@H]1COCC[C@@]1(O)c1ccc(-c2ccccc2)cc1", "note": "[Example 3, N-[(3S,4R)-4-biphenyl-4-yl-4-hydroxytetrahydro-2H-pyran-3-yl]propane-2-sulfonamide]", "EC50": 4.3}
{"compound": "CC(C)S(=O)(=O)N[C@@H]1COCC[C@]1(O)c1ccc(-c2ccccc2)cc1", "note": "[Example 4, N-[(3R,4S)-4-biphenyl-4-yl-4-hydroxytetrahydro-2H-pyran-3-yl]propane-2-sulfonamide]", "EC50": "> 31.6"}
{"compound": "CC(C)S(=O)(=O)N[C@H]1COCC[C@]1(O)c1ccc(-c2ccccc2)cc1", "note": "[Example 5, N-[(3S,4S)-4-biphenyl-4-yl-4-hydroxytetrahydro-2H-pyran-3-yl]propane-2-sulfonamide]", "EC50": 7.66}
{"compound": "CC(C)S(=O)(=O)N[C@@H]1COCC[C@@]1(O)c1ccc(-c2ccccc2)cc1", "note": "[Example 6, N-[(3R,4R)-4-biphenyl-4-yl-4-hydroxytetrahydro-2H-pyran-3-yl]propane-2-sulfonamide]", "EC50": "> 31.6"}
{"compound": "CCOc1ccccc1-c1ccc([C@@H]2CCOC[C@H]2NS(=O)(=O)C(C)C)cc1", "note": "[Example 7, N-[(3S,4S)-4-(2′-ethoxybiphenyl-4-yl)tetrahydro-2H-pyran-3-yl]propane-2-sulfonamide]", "EC50": "> 31.6"}
{"compound": "CCOc1ccccc1-c1ccc([C@H]2CCOC[C@@H]2NS(=O)(=O)C(C)C)cc1", "note": "[Example 8, N-[(3R,4R)-4-(2′-ethoxybiphenyl-4-yl)tetrahydro-2H-pyran-3-yl]propane-2-sulfonamide]", "EC50": 0.403}
{"compound": "CC(C)S(=O)(=O)N[C@H]1CCCO[C@@H]1c1ccc(-c2ccccc2)cc1", "note": "[Example 9, N-[(2R,3S)-2-biphenyl-4-yltetrahydro-2H-pyran-3-yl]propane-2-sulfonamide]", "EC50": 4.45}
{"compound": "CCOc1ccccc1-c1ccc([C@@H]2NC(=O)CC[C@H]2NS(=O)(=O)C(C)C)cc1", "note": "[Example 10, N-[(2S,3R)-2-(2′-ethoxybiphenyl-4-yl)-6-oxopiperidin-3-yl]propane-2-sulfonamide]", "EC50": "> 7.52"}
{"compound": "CC(C)S(=O)(=O)N[C@H]1CCC(=O)N[C@@H]1c1ccc(-c2ccccc2)cc1", "note": "[Example 11, N-[(2R,3S)-2-biphenyl-4-yl-6-oxopiperidin-3-yl]propane-2-sulfonamide]", "EC50": "> 31.6"}
{"compound": "CC(C)S(=O)(=O)N[C@@H]1CCC(=O)N[C@H]1c1ccc(-c2ccccc2)cc1", "note": "[Example 12, N-[(2S,3R)-2-biphenyl-4-yl-6-oxopiperidin-3-yl]propane-2-sulfonamide]", "EC50": 12.2}
{"compound": "CC(C)S(=O)(=O)N[C@@H]1COCC[C@@H]1c1ccc(-c2ccccc2)cc1", "note": "[Example 13, N-[(3S,4R)-4-biphenyl-4-yltetrahydro-2H-pyran-3-yl]propane-2-sulfonamide]", "EC50": "> 31.6"}
{"compound": "CC(C)S(=O)(=O)N[C@@H]1COCC[C@H]1c1ccc(-c2ccccc2)cc1", "note": "[Example 15, N-[(3S,4S)-4-biphenyl-4-yltetrahydro-2H-pyran-3-yl]propane-2-sulfonamide]", "EC50": "> 31.6"}
{"compound": "CC(C)S(=O)(=O)N[C@H]1COCC[C@@H]1c1ccc(-c2ccccc2)cc1", "note": "[Example 16, N-[(3R,4R)-4-biphenyl-4-yltetrahydro-2H-pyran-3-yl]propane-2-sulfonamide]", "EC50": 1.84}
{"compound": "CC(C)S(=O)(=O)N[C@@H]1COCC[C@H]1c1ccc(-c2ccccc2C#N)cc1", "note": "[Example 17, N-[(3S,4S)-4-(2′-cyanobiphenyl-4-yl)tetrahydro-2H-pyran-3-yl]propane-2-sulfonamide]", "EC50": "> 31.6"}
{"compound": "CC(C)S(=O)(=O)N[C@H]1COCC[C@@H]1c1ccc(-c2ccccc2C#N)cc1", "note": "[Example 18, N-[(3R,4R)-4-(2′-cyanobiphenyl-4-yl)tetrahydro-2H-pyran-3-yl]propane-2-sulfonamide]", "EC50": 0.415}
{"compound": "CC(C)S(=O)(=O)N[C@@H]1COCC[C@H]1c1ccc(-c2ccc(C#N)s2)cc1", "note": "[Example 19, N-{(3S,4S)-4-[4-(5-cyano-2-thienyl)phenyl]tetrahydro-2H-pyran-3-yl}propane-2-sulfonamide]", "EC50": "> 31.6"}
{"compound": "CC(C)S(=O)(=O)N[C@H]1COCC[C@@H]1c1ccc(-c2ccc(C#N)s2)cc1", "note": "[Example 20, N-{(3R,4R)-4-[4-(5-cyano-2-thienyl)phenyl]tetrahydro-2H-pyran-3-yl}propane-2-sulfonamide]", "EC50": 9.79}
{"compound": "CC(C)S(=O)(=O)N[C@@H]1CCOC[C@@H]1c1ccc(-c2ccc(C#N)s2)cc1", "note": "[Example 21, N-{(3R,4R)-3-[4-(5-cyano-2-thienyl)phenyl]tetrahydro-2H-pyran-4-yl}propane-2-sulfonamide]", "EC50": "> 31.6"}
{"compound": "CC(C)S(=O)(=O)N[C@H]1CCOC[C@H]1c1ccc(-c2ccccc2C#N)cc1", "note": "[Example 22, N-[(3S,4S)-3-(2′-cyanobiphenyl-4-yl)tetrahydro-2H-pyran-4-yl]propane-2-sulfonamide]", "EC50": 0.429}
{"compound": "CC(C)S(=O)(=O)N[C@@H]1CCOC[C@@H]1c1ccc(-c2ccccc2C#N)cc1", "note": "[Example 23, N-[(3R,4R)-3-(2′-cyanobiphenyl-4-yl)tetrahydro-2H-pyran-4-yl]propane-2-sulfonamide]", "EC50": 10.3}
{"compound": "CC(C)S(=O)(=O)N[C@H]1CCOC[C@H]1c1ccc(-c2ccc(F)cc2C#N)cc1", "note": "[Example 24, N-[(3S,4S)-3-(2′-cyano-4′-fluorobiphenyl-4-yl)tetrahydro-2H-pyran-4-yl]propane-2-sulfonamide]", "EC50": 0.378}
{"compound": "CC(C)S(=O)(=O)N[C@H]1CCOC[C@H]1c1ccc(-c2ccccc2)cc1", "note": "[Example 25, N-[(3S,4S)-3-biphenyl-4-yltetrahydro-2H-pyran-4-yl]propane-2-sulfonamide]", "EC50": 0.684}
{"compound": "CC(C)S(=O)(=O)N[C@@H]1CCOC[C@@H]1c1ccc(-c2ccccc2)cc1", "note": "[Example 26, N-[(3R,4R)-3-biphenyl-4-yltetrahydro-2H-pyran-4-yl]propane-2-sulfonamide]", "EC50": "> 31.6"}
{"compound": "CCOc1ccccc1-c1ccc([C@@H]2COCC[C@@H]2NS(=O)(=O)C(C)C)cc1", "note": "[Example 27, N-[(3S,4S)-3-(2′-ethoxybiphenyl-4-yl)tetrahydro-2H-pyran-4-yl]propane-2-sulfonamide]", "EC50": 0.32}
{"compound": "CCOc1ccccc1-c1ccc([C@H]2COCC[C@H]2NS(=O)(=O)C(C)C)cc1", "note": "[Example 28, N-[(3R,4R)-3-(2′-ethoxybiphenyl-4-yl)tetrahydro-2H-pyran-4-yl]propane-2-sulfonamide]", "EC50": "> 31.6"}
{"compound": "CC(C)S(=O)(=O)N[C@H]1CCOC[C@H]1c1ccc(-c2ccc(C#N)cc2)cc1", "note": "[Example 29, N-[(3S,4S)-3-(4′-cyanobiphenyl-4-yl)tetrahydro-2H-pyran-4-yl]propane-2-sulfonamide]", "EC50": 4.04}
{"compound": "CC(C)S(=O)(=O)N[C@@H]1CCOC[C@@H]1c1ccc(-c2ccc(C#N)cc2)cc1", "note": "[Example 30, N-[(3R,4R)-3-(4′-cyanobiphenyl-4-yl)tetrahydro-2H-pyran-4-yl]propane-2-sulfonamide]", "EC50": "> 31.6"}
{"compound": "CC(C)S(=O)(=O)N[C@H]1CCOC[C@@H]1c1ccc(-c2ccccc2C#N)cc1", "note": "[Example 31, N-[(3R,4S)-3-(2′-cyanobiphenyl-4-yl)tetrahydro-2H-pyran-4-yl]propane-2-sulfonamide]", "EC50": 0.318}
